Experimental data reported in paper PMC11986975, “A Cdk5 inhibitor restores cognitive function and alleviates type 2 diabetes in mice” (iScience, 2025).

Key:
[1] = target: Cdk5/p25 (Homo sapiens, UniProt Q00535); test: Cdk5 kinase assay (ADP-Glo) with Cdk5/p25 complex; format: biochemical; settings: 10 μM ATP, histone substrate, inhibitor 0-100 nM
Protocol: (§1) The test tube Cdk5 Kinase assay was performed utilizing Cdk5/p35 and Cdk5/p25 complexes as kinases, following the modified procedure outlined in a previous study,[52] using a Promega ADP-GloTM Kinase Assay kit. The reaction was carried out with 10 μM ATP and 2 μg of histone as the substrate for Cdk5 complexes. To study the inhibition patterns, 19 Cdk5 inhibitors (BLINK1-19) identified through molecular docking were added to the Cdk5 kinase reaction in increasing concentrations ranging from 0 to 100 nM. The IC50 (half-maximal inhibitory concentration) values of all the inhibitors were calculated based on Log(inhibitor) vs. normalized response using GraphPad software.

[2] = target: Cdk5/p35 (Homo sapiens, UniProt Q00535); test: Cdk5 kinase assay (ADP-Glo) with Cdk5/p35 complex; format: biochemical; settings: 10 μM ATP, histone substrate, inhibitor 0-100 nM
Protocol: as §1

Cdk5/p25, sequence (Q00535 whole entry, species assumed): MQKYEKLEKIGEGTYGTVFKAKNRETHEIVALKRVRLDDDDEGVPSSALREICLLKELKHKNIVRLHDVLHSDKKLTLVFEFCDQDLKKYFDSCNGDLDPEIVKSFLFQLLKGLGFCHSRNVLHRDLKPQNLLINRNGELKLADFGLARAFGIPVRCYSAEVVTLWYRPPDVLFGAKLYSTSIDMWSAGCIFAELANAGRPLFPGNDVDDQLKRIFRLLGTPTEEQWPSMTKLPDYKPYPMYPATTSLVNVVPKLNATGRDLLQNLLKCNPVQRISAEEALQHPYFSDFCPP
Cdk5/p25, sequence (Q15078 99-307 partner limits assumed, species assumed): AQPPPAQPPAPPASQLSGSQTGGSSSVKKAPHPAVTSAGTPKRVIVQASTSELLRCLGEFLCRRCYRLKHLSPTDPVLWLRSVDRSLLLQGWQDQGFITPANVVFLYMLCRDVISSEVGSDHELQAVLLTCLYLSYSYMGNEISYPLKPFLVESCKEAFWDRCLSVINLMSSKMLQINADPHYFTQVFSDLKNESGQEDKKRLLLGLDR
Cdk5/p35, sequence (Q00535 whole entry, species assumed): as the sequence (Q00535 whole entry, species assumed) above
Cdk5/p35, sequence (Q15078 whole entry partner, species assumed): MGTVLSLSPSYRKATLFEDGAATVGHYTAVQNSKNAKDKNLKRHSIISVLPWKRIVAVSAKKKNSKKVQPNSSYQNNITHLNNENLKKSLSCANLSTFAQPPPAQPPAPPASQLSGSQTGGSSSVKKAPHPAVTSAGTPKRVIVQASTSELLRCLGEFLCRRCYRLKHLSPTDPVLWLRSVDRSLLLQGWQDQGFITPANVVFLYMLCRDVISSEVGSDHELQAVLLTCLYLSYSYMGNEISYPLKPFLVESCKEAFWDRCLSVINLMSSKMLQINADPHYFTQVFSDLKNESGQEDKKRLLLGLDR

Compound	IC50 [1] [nM]	IC50 [2] [nM]
CC1(C)Cc2c(sc3nc(SCC(=O)O)[nH]c(=O)c23)CO1 [BLINK1]	18.4	19.2
COc1ccc(C(=O)CSc2nc3sc(C)c(C)c3c(=O)[nH]2)cc1C [BLINK2]	33.5	92.6
Cc1ccc(-c2csc(Cc3nc(-c4cc5ccccc5oc4=O)cs3)n2)cc1 [BLINK3]	71.3	68.7
O=C(Nc1ccc(Cl)cc1C(=O)NCCO)c1ccc(Cl)cc1Cl [BLINK4]	16.9	27.7
CN(C)C(=O)CSc1nc2sc3c(c2c(=O)[nH]1)CCCC3 [BLINK5]	17.5	16.9
OCCCNc1nc(-c2ccccc2Cl)c2cc(Br)ccc2n1 [BLINK6]	141	183
Cc1nnc(SCC(=O)Nc2nsc(-c3ccc(Cl)cc3)n2)s1 [BLINK7]	97	85.2
Cc1ccc2nc(Nc3nc(O)cc(CSc4nnc(C)s4)n3)nc(C)c2c1 [BLINK8]	108	50.6
CCOC(=O)c1cnc(Nc2nc3ccccc3o2)nc1CSc1nnc(C)s1 [BLINK9]	35.1	54.1
O=C(CSc1nnc(-c2ccccc2Cl)[nH]1)c1ccc(O)c(O)c1 [BLINK13]	41.5	20.1
Cc1cc(C)c2nc(-c3cccnc3)cc(C(=O)Nc3sc(Cc4ccccc4)cc3C(N)=O)c2c1 [BLINK14]	23.1	24.8
Clc1ccc2nc(SCc3csc(Nc4ccccc4)n3)oc2c1 [BLINK16]	21.2	28
O=C(CSc1n[nH]c(-c2ccc(Cl)cc2)n1)N[C@H]1C[C@@H]2CC[C@H]1C2 [BLINK17]	43.2	63.2
O=C1c2cccc3cccc(c23)C(=O)N1CCCSc1n[nH]c(-c2ccc(F)cc2)n1 [BLINK18]	32.1	57.2
CC1CCc2c(sc3nc(CCl)ncc23)C1 (stereo not drawn) [BLINK19]	48.1	55.3
